Experimental data: US12599672B2, “KRAS proteolysis targeting chimeras” (PAQ Therapeutics Inc., priority 2023, dated 2026)

Legend:
Format in all cases: cell-based
[1] = target: T1, KRAS G12V (Homo sapiens, UniProt P01116, G12V); assay: KRAS G12V HiBit assay; settings: SW620-KRAS (G12V)-HiBit-KI cells, compound treatment for 24 hours, class symbols
T1 construct: SW620-KRAS (G12V)-HiBit-KI cell (Pharmaron); host or cells: SW620-KRAS (G12V)-HiBit-KI cells (HiBiT knock-in at the endogenous KRAS locus)
Procedure, shortened: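 HiBiT-tagged KRAS G12V cells treated 24 h with compound in a 3-fold, 10-point series (0.3 mM DMSO stock); lytic HiBiT reagent with LgBiT added after 15 min room-temperature equilibration. Degradation calculated against 0.1% DMSO high control.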

[2] = target: T2, KRAS (Homo sapiens, UniProt P01116); assay: KRASamp MSD assay; settings: KE39 (KRAS amplified) cells, treated with test compounds for 24 hr, MSD readout of KRAS degradation
T2 construct: endogenous in cells; host or cells: KE39 (KRAS amplified) cells
Procedure, shortened: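 KRAS-amplified KE39 cells treated with compound for 24 hr, then lysed in RIPA buffer with protease/phosphatase inhibitors. KRAS protein measured by MSD sandwich immunoassay against a recombinant WT KRAS standard curve; DC50 derived from curve fitting of degradation.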

[3] = target: T3, KRAS G12D (Homo sapiens, UniProt P01116, G12D); assay: KRAS G12D HiBit assay; settings: AsPc-1-KRAS (G12D)-HiBit-KI cell, compound treatment for 24 hours, absolute DC50
T3 construct: AsPc-1-KRAS (G12D)-HiBit-KI cell (Pharmaron); host or cells: AsPc-1-KRAS (G12D)-HiBit-KI cells (HiBiT knock-in at the endogenous KRAS locus)
Procedure, shortened: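 Cells were treated for 24 h with compounds in a 3-fold, 10-point dilution series from a 0.3 mM DMSO stock, then equilibrated 15 min at room temperature. KRAS G12D HiBiT levels were read by luminescence after lytic Nano-Glo HiBiT reagent with LgBiT; inhibition calculated relative to 0.1% DMSO high control.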

[4] = numeric bounds given in place of class symbols

T2 sequence (P01116 1-188 isoform P01116-2): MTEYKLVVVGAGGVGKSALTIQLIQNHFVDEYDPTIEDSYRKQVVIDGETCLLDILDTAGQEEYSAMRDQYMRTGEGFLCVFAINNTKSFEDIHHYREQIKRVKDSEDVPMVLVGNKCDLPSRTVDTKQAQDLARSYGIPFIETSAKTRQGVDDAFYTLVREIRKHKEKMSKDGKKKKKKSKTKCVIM
T1 sequence (P01116 1-188 isoform P01116-2 G12V): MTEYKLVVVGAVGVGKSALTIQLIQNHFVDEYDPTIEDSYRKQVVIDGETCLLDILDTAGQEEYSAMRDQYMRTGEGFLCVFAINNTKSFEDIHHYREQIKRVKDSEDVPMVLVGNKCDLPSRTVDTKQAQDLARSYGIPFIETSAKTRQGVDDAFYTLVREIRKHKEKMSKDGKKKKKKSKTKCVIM
T3 sequence (P01116 1-188 isoform P01116-2 G12D): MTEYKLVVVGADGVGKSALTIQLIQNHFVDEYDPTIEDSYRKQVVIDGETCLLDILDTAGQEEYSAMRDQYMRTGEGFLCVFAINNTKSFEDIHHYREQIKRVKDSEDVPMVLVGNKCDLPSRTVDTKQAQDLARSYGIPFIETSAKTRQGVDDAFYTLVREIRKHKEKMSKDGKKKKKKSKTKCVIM

DC50 [1]	DC50 [2]	DC50 [3, 4]	DC50 ([3]; class symbols)	Structure (SMILES)
> 100 nM	≥ 10 nM	> 100 nM	–	CCc1c(F)ccc2cc(O)cc(-c3ncc4c(N5CC6(CCC6)C5)nc(OC[C@@]56CCCN5[C@H](COC(=O)N5CCC7(CC5)CC(N5CCC(c8ccc9c(c8)n(C)c(=O)n9C8CCC(=O)NC8=O)CC5)C7)CC6)nc4c3F)c12 (stereo partly drawn) [Compound 347, ((3S,7aS)-7a-(((7-(8-ethyl-7-fluoro-3-hydroxynaphthalen-1-yl)-8-fluoro-4-(2-azaspiro[3.3]heptan-2-yl)pyrido[4,3-d]pyrimidin-2-yl)oxy)methyl)hexahydro-1H-pyrrolizin-3-yl)methyl 2-(4-(1-(2,6-dioxopiperidin-3-yl)-3-methyl-2-oxo-2,3-dihydro-1H-benzo[d]imidazol-5-yl)piperidin-1-yl)-7-azaspiro[3.5]nonane-7-carboxylate]
> 100 nM	≥ 10 nM	> 100 nM	–	CCc1c(F)ccc2cc(O)cc(-c3ncc4c(N5CCCC5)nc(OC[C@@]56CCCN5[C@H](COC(=O)N5CCC7(CC5)CC(N5CCC(c8ccc9c(c8)n(C)c(=O)n9C8CCC(=O)NC8=O)CC5)C7)CC6)nc4c3F)c12 (stereo partly drawn) [Compound 348, ((3S,7aS)-7a-(((7-(8-ethyl-7-fluoro-3-hydroxynaphthalen-1-yl)-8-fluoro-4-(pyrrolidin-1-yl)pyrido[4,3-d]pyrimidin-2-yl)oxy)methyl)hexahydro-1H-pyrrolizin-3-yl)methyl 2-(4-(1-(2,6-dioxopiperidin-3-yl)-3-methyl-2-oxo-2,3-dihydro-1H-benzo[d]imidazol-5-yl)piperidin-1-yl)-7-azaspiro[3.5]nonane-7-carboxylate]
10 to 100 nM	1 to 10 nM	> 100 nM	–	CCc1c(F)ccc2cc(O)cc(-c3ncc4c(N5CC[C@H](O)C5)nc(OC[C@@]56CCCN5[C@H](COC(=O)N5CCC7(CC5)CC(N5CCC(c8ccc9c(c8)n(C)c(=O)n9C8CCC(=O)NC8=O)CC5)C7)CC6)nc4c3F)c12 (stereo partly drawn) [Compound 349, ((3S,7aS)-7a-(((7-(8-ethyl-7-fluoro-3-hydroxynaphthalen-1-yl)-8-fluoro-4-((S)-3-hydroxypyrrolidin-1-yl)pyrido[4,3-d]pyrimidin-2-yl)oxy)methyl)hexahydro-1H-pyrrolizin-3-yl)methyl 2-(4-(1-(2,6-dioxopiperidin-3-yl)-3-methyl-2-oxo-2,3-dihydro-1H-benzo[d]imidazol-5-yl)piperidin-1-yl)-7-azaspiro[3.5]nonane-7-carboxylate]
< 10 nM	1 to 10 nM	–	< 100 nM	CCc1c(F)ccc2cc(O)cc(-c3ncc4c(N5CC[C@@H](O)C5)nc(OC[C@@]56CCCN5[C@H](COC(=O)N5CCC7(CC5)CC(N5CCC(c8ccc9c(c8)n(C)c(=O)n9C8CCC(=O)NC8=O)CC5)C7)CC6)nc4c3F)c12 (stereo partly drawn) [Compound 350, ((3S,7aS)-7a-(((7-(8-ethyl-7-fluoro-3-hydroxynaphthalen-1-yl)-8-fluoro-4-((R)-3-hydroxypyrrolidin-1-yl)pyrido[4,3-d]pyrimidin-2-yl)oxy)methyl)hexahydro-1H-pyrrolizin-3-yl)methyl 2-(4-(1-(2,6-dioxopiperidin-3-yl)-3-methyl-2-oxo-2,3-dihydro-1H-benzo[d]imidazol-5-yl)piperidin-1-yl)-7-azaspiro[3.5]nonane-7-carboxylate]
< 10 nM	< 1 nM	–	< 100 nM	CCc1c(F)ccc2cc(O)cc(-c3ccc4c(N5CCC[C@@](C)(O)C5)nc(OC[C@@]56CCCN5[C@H](COC(=O)N5CCC7(CC5)CC(N5CCC(c8ccc9c(c8)n(C)c(=O)n9C8CCC(=O)NC8=O)CC5)C7)CC6)nc4c3F)c12 (stereo partly drawn) [Compound 355, ((3S,7aS)-7a-(((7-(8-ethyl-7-fluoro-3-hydroxynaphthalen-1-yl)-8-fluoro-4-((R)-3-hydroxy-3-methylpiperidin-1-yl)quinazolin-2-yl)oxy)methyl)hexahydro-1H-pyrrolizin-3-yl)methyl 2-(4-(1-(2,6-dioxopiperidin-3-yl)-3-methyl-2-oxo-2,3-dihydro-1H-benzo[d]imidazol-5-yl)piperidin-1-yl)-7-azaspiro[3.5]nonane-7-carboxylate]
> 100 nM	1 to 10 nM	> 100 nM	–	CCc1c(F)ccc2cc(O)cc(-c3ncc4c(N5CCC(F)(F)CC5)nc(OC[C@@]56CCCN5[C@H](COC(=O)N5CCC7(CC5)CC(N5CCC(c8ccc9c(c8)n(C)c(=O)n9C8CCC(=O)NC8=O)CC5)C7)CC6)nc4c3F)c12 (stereo partly drawn) [Compound 357, ((3S,7aS)-7a-(((4-(4,4-difluoropiperidin-1-yl)-7-(8-ethyl-7-fluoro-3-hydroxynaphthalen-1-yl)-8-fluoropyrido[4,3-d]pyrimidin-2-yl)oxy)methyl)hexahydro-1H-pyrrolizin-3-yl)methyl 2-(4-(1-(2,6-dioxopiperidin-3-yl)-3-methyl-2-oxo-2,3-dihydro-1H-benzo[d]imidazol-5-yl)piperidin-1-yl)-7-azaspiro[3.5]nonane-7-carboxylate]
< 10 nM	< 1 nM	–	< 100 nM	CCc1c(F)ccc2cc(O)cc(-c3ncc4c(N5CCCCC5)nc(OC[C@@]56CCCN5[C@H](COC(=O)N5CCC7(CC5)CC(N5CCC(c8ccc9c(c8)n(C)c(=O)n9C8CCC(=O)NC8=O)CC5)C7)CC6)nc4c3F)c12 (stereo partly drawn) [Compound 367, ((3S,7aS)-7a-(((7-(8-ethyl-7-fluoro-3-hydroxynaphthalen-1-yl)-8-fluoro-4-(piperidin-1-yl)pyrido[4,3-d]pyrimidin-2-yl)oxy)methyl)hexahydro-1H-pyrrolizin-3-yl)methyl 2-(4-(1-(2,6-dioxopiperidin-3-yl)-3-methyl-2-oxo-2,3-dihydro-1H-benzo[d]imidazol-5-yl)piperidin-1-yl)-7-azaspiro[3.5]nonane-7-carboxylate]
< 10 nM	1 to 10 nM	–	< 100 nM	C#Cc1c(F)ccc2cc(O)cc(-c3ncc4c(N5CCC[C@@](C)(O)C5)nc(OC[C@@]56CCCN5[C@H](COC(=O)N5CCC(OCCC#Cc7ccc8c(c7)n(C)c(=O)n8C7CCC(=O)NC7=O)CC5)CC6)nc4c3F)c12 (stereo partly drawn) [Compound 369, ((3S,7aS)-7a-(((7-(8-ethynyl-7-fluoro-3-hydroxynaphthalen-1-yl)-8-fluoro-4-((R)-3-hydroxy-3-methylpiperidin-1-yl)pyrido[4,3-d]pyrimidin-2-yl)oxy)methyl)hexahydro-1H-pyrrolizin-3-yl)methyl 4-((4-(1-(2,6-dioxopiperidin-3-yl)-3-methyl-2-oxo-2,3-dihydro-1H-benzo[d]imidazol-5-yl)but-3-yn-1-yl)oxy)piperidine-1-carboxylate]
< 10 nM	1 to 10 nM	–	< 100 nM	CCc1c(F)ccc2cc(O)cc(-c3ncc4c(N5CCC[C@@](C)(O)C5)nc(OC[C@@]56CCCN5[C@H](COC(=O)N5CCC(OCCC#Cc7cccc8c7n(C)c(=O)n8C7CCC(=O)NC7=O)CC5)CC6)nc4c3F)c12 (stereo partly drawn) [Compound 370, ((3S,7aS)-7a-(((7-(8-Ethyl-7-fluoro-3-hydroxynaphthalen-1-yl)-8-fluoro-4-((R)-3-hydroxy-3-methylpiperidin-1-yl)pyrido[4,3-d]pyrimidin-2-yl)oxy)methyl)hexahydro-1H-pyrrolizin-3-yl)methyl4-((4-(1-(2,6-dioxopiperidin-3-yl)-3-methyl-2-oxo-2,3-dihydro-1H-benzo[d]imidazol-4-yl)but-3-yn-1-yl)oxy)piperidine-1-carboxylate]
